# Measured values: paper PMC3263372 (Chembiochem, 2011)
# “Also recorded” adds a separate entry of the source. Square brackets hold non-standard residues; d marks the D form. Peptide text beside a SMILES is read from it. β3hW = N[C@H](CC(=O)O)Cc1c[nH]c2ccccc12; β3hR = N=C(N)NCCC[C@H](N)CC(=O)O; β3hE = N[C@@H](CCC(=O)O)CC(=O)O; β3hQ = NC(=O)CC[C@H](N)CC(=O)O; β3hD = NC(CC(=O)O)CC(=O)O; β3hA = C[C@H](N)CC(=O)O
# Key:
# [1] = target: Bcl-2 (Homo sapiens, UniProt P10415); experiment: Solution competition SPR; type: binding
# Chain of Bcl-2 (P10415 1-217 limits assumed, species assumed): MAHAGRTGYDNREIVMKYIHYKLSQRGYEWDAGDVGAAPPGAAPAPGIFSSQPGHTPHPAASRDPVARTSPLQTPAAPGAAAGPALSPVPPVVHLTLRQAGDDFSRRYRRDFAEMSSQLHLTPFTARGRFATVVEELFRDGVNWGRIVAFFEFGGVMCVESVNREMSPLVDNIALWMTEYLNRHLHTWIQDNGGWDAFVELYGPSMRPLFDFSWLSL
# [2] = target: T1, Bcl-w (Homo sapiens, UniProt Q92843, A128E/C29S); experiment: Solution competition SPR; type: binding
# T1 sequence (Q92843 1-164 C29S/A128E limits assumed): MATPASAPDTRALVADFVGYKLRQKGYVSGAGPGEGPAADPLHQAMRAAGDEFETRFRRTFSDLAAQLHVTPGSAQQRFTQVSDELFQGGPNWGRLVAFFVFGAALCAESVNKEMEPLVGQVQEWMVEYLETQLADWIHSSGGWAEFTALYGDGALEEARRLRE
# [3] = target: T2, Bcl-xL (Homo sapiens, UniProt Q07817); experiment: Solution competition SPR; type: binding; settings: for affinity for Bcl-xL: SPR, in words
# T2 sequence (Q07817 1-209 limits assumed): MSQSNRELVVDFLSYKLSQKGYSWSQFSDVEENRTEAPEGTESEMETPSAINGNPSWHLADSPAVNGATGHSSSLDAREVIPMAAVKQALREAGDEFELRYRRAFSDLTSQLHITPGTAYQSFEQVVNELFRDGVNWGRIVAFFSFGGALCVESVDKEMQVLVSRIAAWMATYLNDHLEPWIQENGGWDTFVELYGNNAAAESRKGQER
# [4] = target: Mcl-1 (Homo sapiens, UniProt Q07820, A193S/E173D/K208R/M199L/R201E/S202A/S206G/T196S/T205A); experiment: Solution competition SPR; type: binding, human/mouse chimeric; settings: for affinity for Mcl-1: SPR, in words
# Chain of Mcl-1 (Q07820 171-327 E173D/A193S/T196S/M199L/R201E/S202A/T205A/S206G/K208R limits assumed): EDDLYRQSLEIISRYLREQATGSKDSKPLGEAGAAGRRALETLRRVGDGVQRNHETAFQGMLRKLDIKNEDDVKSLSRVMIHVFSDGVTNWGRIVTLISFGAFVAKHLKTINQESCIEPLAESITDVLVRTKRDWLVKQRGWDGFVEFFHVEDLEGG
# [5] = system: pro-survival proteins; settings: ref [37]; cited from earlier work
# [6] = target: T2, Bcl-xL; settings: preliminary studies; ref [14]; cited from earlier work
# [7] = ref [14]; cited from earlier work
SMILES,IC50 [1] [nM],IC50 [2] [nM],IC50 [3] [nM],IC50 [4] [nM],binding to all pro-survival proteins [5],affinity for Bcl-xL [3],affinity for Mcl-1 [4],binding to Bcl-xL [6],resistance to proteolytic degradation [7]
CC[C@H](C)[C@H](NC(=O)[C@H](CCC(=O)O)NC(=O)[C@H](CCCNC(=N)N)NC(=O)[C@H](C)NC(=O)[C@H](Cc1c[nH]c2ccccc12)NC(=O)[C@H](CCC(N)=O)NC(=O)[C@H](CCC(=O)O)NC(=O)[C@H](CCC(=O)O)NC(C)=O)C(=O)NCC(=O)N[C@@H](C)C(=O)N[C@@H](CCC(N)=O)C(=O)N[C@@H](CC(C)C)C(=O)N[C@@H](CCCNC(=N)N)C(=O)N[C@@H](CCCNC(=N)N)C(=O)N[C@@H](CCSC)C(=O)N[C@@H](C)C(=O)N[C@@H](CC(=O)O)C(=O)N[C@@H](CC(=O)O)C(=O)N[C@@H](CC(C)C)C(=O)N[C@@H](CC(N)=O)C(=O)N[C@@H](C)C(=O)N[C@@H](CCC(N)=O)C(=O)N[C@@H](Cc1ccc(O)cc1)C(=O)N[C@@H](CCC(=O)O)C(=O)N[C@@H](CCCNC(=N)N)C(=O)N[C@@H](CCCNC(=N)N)C(N)=O [α-peptide 1],5,13,18,10,promiscuous binder capable of engaging all pro-survival proteins with high affinity,,,,
CC[C@H](C)[C@H](NC(=O)C[C@H](CCC(=O)O)NC(=O)[C@H](CCCNC(=N)N)NC(=O)[C@H](C)NC(=O)C[C@H](Cc1c[nH]c2ccccc12)NC(=O)[C@H](CCC(N)=O)NC(=O)[C@H](CCC(=O)O)NC(=O)[C@H](CCC(=O)O)NC(C)=O)C(=O)NCC(=O)N[C@@H](C)C(=O)N[C@@H](CCC(N)=O)CC(=O)N[C@@H](CC(C)C)C(=O)N[C@@H](CCCNC(=N)N)C(=O)N[C@@H](CCCNC(=N)N)CC(=O)N[C@@H](CCSC)C(=O)N[C@@H](C)C(=O)N[C@@H](CC(=O)O)C(=O)N[C@@H](CC(=O)O)CC(=O)N[C@@H](CC(C)C)C(=O)N[C@@H](CC(N)=O)C(=O)N[C@@H](C)CC(=O)N[C@@H](CCC(N)=O)C(=O)N[C@@H](Cc1ccc(O)cc1)C(=O)N[C@@H](CCC(=O)O)C(=O)N[C@@H](CCCNC(=N)N)CC(=O)N[C@@H](CCCNC(=N)N)C(N)=O [α/β-peptide 2],,,,,,strong binding; also recorded: high affinity,does not bind tightly to Mcl-1; also recorded: low affinity; also recorded: relatively weak binding,bound tightly,significant resistance to proteolytic degradation
CC[C@H](C)[C@H](NC(=O)C[C@H](CCC(=O)O)NC(=O)[C@H](CCCNC(=N)N)NC(=O)[C@H](C)NC(=O)C[C@H](Cc1c[nH]c2ccccc12)NC(C)=O)C(=O)NCC(=O)N[C@@H](C)C(=O)N[C@@H](CCC(N)=O)CC(=O)N[C@@H](CC(C)C)C(=O)N[C@@H](CCCNC(=N)N)C(=O)N[C@@H](CCCNC(=N)N)CC(=O)N[C@@H](CCSC)C(=O)N[C@@H](C)C(=O)N[C@@H](CC(=O)O)C(=O)N[C@@H](CC(=O)O)CC(=O)N[C@@H](CC(C)C)C(=O)N[C@@H](CC(N)=O)C(=O)N[C@@H](C)CC(=O)N[C@@H](CCC(N)=O)C(=O)N[C@@H](Cc1ccc(O)cc1)C(=O)N[C@@H](CCC(=O)O)C(N)=O [α/β-peptide 3] (Ac-[β3hW]AR[β3hE]IGA[β3hQ]LR[β3hR]MAD[β3hD]LN[β3hA]QYE-NH2; N-terminus assumed),,,,,,high affinity,low affinity,,
